Patent publication EP4285905A1, “CABERGOLINE OR A PHARMACEUTICALLY ACCEPTABLE SALT OR SOLVATE THEREOF, FOR USE IN PREVENTION OR DELAY OF POST-PREGNANCY BREAST CANCER IN A FEMALE MAMMAL” (Consejo Superior de Investigaciones Cientificas, priority 2022, dated 2023)

Assays:
[1] = tested on: recombinant (RFP+) cells; assay: Flow cytometry of RFP+ recombinant mammary epithelial subpopulations; format: in vivo, mice; conditions: 60 days after weaning
Text: The mouse model used for the cytometry studies was obtained by crossing the conditional model K14Cre; Brca1^F/F; P53^F/F with a model that expresses red fluorescent protein (RFP) under the promoter of the ROSA26 locus. This promoter has a stop codon flanked by LoxP sites that recognize Cre-recombinase. In this way, cells that lose Brca1 (gene) and P53 (gene) due to the action of Cre-recombinase also express RFP and emit fluorescence. The mouse was obtained from the European repository (European mutant mouse archive - EMMA) and was generated by the group of Hans Jörg Fehling from the Institute of Immunology of the Clinical University of Ulm, Germany. For these studies, between 6 and 11 mice from the different study groups were used.
Once the mouse mammary glands were removed, they were incubated in a 50 mL tube containing 9 mL of medium (Gibco DMEM/F-12, #11554546, Fisher Scientific), 500 µL of collagenase and 500 µL of hyaluronidase, at a temperature of 37 °C for 16 hours. After incubation, the aggregated tissue debris was disrupted by pipetting for approximately 30 seconds and the sample was centrifuged for 5 minutes at 350 g at room temperature. Centrifugation was performed, in all examples, using the Eppendorf 5804R refrigerated centrifuge including an A-44 rotor with a radius of 15 cm (width (metric) exterior 634 mm; depth (metric) 550 mm, height (metric) exterior 342 mm). The supernatant was discarded and the pellet formed was resuspended in 2 mL of ACK buffer (Gibco ACK Lysing Buffer, #A10492-01, Fisher Scientific) to lyse the erythrocytes present in the sample. The disaggregated sample was incubated in ACK buffer for 5 minutes at room temperature and subsequently centrifuged at 350 g for 5 minutes. After centrifugation, the supernatant was discarded and 1 mL of trypsin was added at 37 °C. The pellet was resuspended by pipetting for 2 minutes. Next, 10 mL of saline (Gibco HBSS, #14025-092, Fisher Scientific) supplemented with 10 mM HEPES buffer and fetal bovine serum was added and centrifuged for 5 minutes at 350 g at room temperature. Then, the supernatant was discarded and 1 mL of the buffered saline solution (hereinafter HF) and 100 µL of warm DNase were added, carefully pipetted for 1 minute and 5 mL of cold HF was added, to stop action of the DNase. The mixture was filtered through a 40 µm filter and washed with 5 mL of cold HF. It was centrifuged for 5 minutes at 350 g, at a temperature of 4 °C and the supernatant was removed after centrifugation. Subsequently, the mixture was resuspended in 5 mL of cold HF and the mixture was distributed in cytometry tubes with a 35 µm filter. 4/5 of the sample was allocated for immunolabeling and the remaining 1/5 was allocated as an unlabelled control. It was centrifuged for 5 minutes at 1200 rpm (= 20 s^-1) at a temperature of 4 °C and the supernatant was decanted after centrifugation. Subsequently, 52 µL of blocking solution, consisting of 50 µL of HF and 2 µL of anti-CD16/CD32 antibody, were added, gently vortexed and incubated for 10 minutes at 4 °C. Next, 50 µL of immuno-labelling solution made up of the following antibodies: CD45 FITC, CD140 FITC, CD31 FITC, Ter119 FITC, CD49fAPC, CD29 APC-Cy7, CD61 BV421, Sca1 PerCP-Cy5, EpCAM PE- Cy7, e506, was added to the tube intended for staining and 50 µL of HF was added to the control tube. After incubating for 30 minutes and performing a wash, the samples were acquired with the LSR Fortessa X-20 Cell Analyzer cytometer (BD Biosciences). […]

[2] = tested on: Brca1/P53-deficient mice; assay: Caspase 3 immunohistochemistry as a marker of apoptosis in the mammary gland; format: in vivo
Text: Subsequently, the same groups of animals indicated were generated and samples were collected from the mammary glands at 1, 3, 7, 30 and 60 days post-gestation (in non-lactating multiparous) or post-weaning (in lactating multiparous, with and without treatment with cabergoline) (N = 5 mice per group at each time studied).
The left inguinal breast of each mouse was embedded in paraffin for further study. Once removed from the animals, the breasts were fixed in 4% paraformaldehyde (Scharlau FO) for 24 hours and, subsequently, they were kept in 70% ethanol at a temperature of 4 °C, until they were processed in the Comparative Molecular Pathology Service of the Salamanca Cancer Research Center. Tissues were dehydrated by three 1-hour incubations in increasing concentrations of ethanol (60%, 80%, and 100%). Three other 1-hour incubations were carried out in xylol, to replace the dehydrating agent with a substance miscible in paraffin. Finally, three other incubations of 1 hour and 20 minutes were carried out with liquid paraffin, after which blocks were made with a mould suitable for the size of the tissue in a paraffin embedding station. When the paraffin blocks were completely cold, 2-µm-thick sections were made using a rotation microtome (Leica RM2255). […]
To quantify cells positive for Ki-67 or caspase 3, the Leica Application Suite (LAS) V3.7 program was used. […]

[3] = KO-RFP+ group, vs nulliparous and lactating multiparous mice
[4] = treated vs untreated multiparous mice

C=CCN1C[C@H](C(=O)N(CCCN(C)C)C(=O)NCC)C[C@@H]2c3cccc4[nH]cc(c34)C[C@H]21 [cabergoline, 1-[(6-allylergolin-8ß-yl)-carbonyl]-1-[3-(dimethylamino)propyl]-3-ethylurea]
ductal precursor cells (CD61+) with respect to total recombinant ductal cells [1, 3]: relative increase in precursors | mature ductal cells (CD61-) with respect to total recombinant ductal cells [1, 3]: relative decrease in mature ductal cells | ductal cell subpopulations with respect to total recombinant epithelial cells [1, 4]: no statistically significant differences | proportion of luminal and basal cells within recombinant cells (RFP+) [1, 4]: No significant differences | proportion of luminal ductal cells (Sca1+) within recombinant luminal cells [1, 4]: no significant differences | apoptosis (percentage of apoptotic cells positive against caspase 3) ([2]; 3 days of post-lactational involution, vs untreated multiparous mice, P < 0.0001): significant increase in apoptosis | basal apoptosis of the epithelium (caspase 3) ([2]; 30 days post-weaning): greater basal apoptosis of the epithelium
